We go through three molecules from article PMC4190408, “Acylation of Glucagon-Like Peptide-2: Interaction with Lipid Membranes and In Vitro Intestinal Permeability” (PLoS ONE, 2014).

The data set has as its system Caco-2 cells. As to the kind of experiment: Translocation across Caco-2 cell monolayers. Type of data set: in vitro ADME, human. The note with it: for Caco-2 translocation relative to native GLP-2 (in words): Caco-2 monolayers. On the procedure: Caco-2 cells (passage 40–65) were cultured routinely in DMEM with 10% (v/v) FBS, 1% (v/v) nonessential amino acids, 100 U penicillin, 0.1 mg/mL streptomycin and 2 mM L-glutamine. The Caco-2 cells were seeded at a density of [drawing 60] cells/well on 12 well Transwells plates and grown for 14–16 days in DMEM with media change every second day. The cell layer was confirmed to consist of a single monolayer of cells by fixing and staining the cell layer, and visualizing by fluorescence microscopy.
Before transport experiments, DMEM medium was changed to HBSS buffer (containing 10 mM HEPES and 0.1% (w/v) OVA; 0.4 mL apical side and 1 mL basolateral) and left to equilibrate for 60 minutes. Buffer was replaced apically by 0.4 mL test solution at time zero, and the plates were incubated at [drawing 61] and 5% [drawing 62] with gentle shaking. Test solutions contained 100 [drawing 63] peptide and 0.8 [drawing 64] [ [drawing 65] ]mannitol (a permeability marker). Basolateral samples of 200 [drawing 66] were taken every 15 minutes for 1 hour, and replaced by buffer. The apical test solution and basolateral samples were diluted and analyzed for peptide content with the luciferase assay and for [ [drawing 67] ]mannitol content in a scintillation counter (Packard TopCount), after mixing 1∶1 with scintillation fluid.
The integrity of cell monolayers before, during, and after experiments was verified by measuring the translocation of radioactively labelled mannitol and the transepithelial electrical resistance (TEER), using a Milicell ERS-2 epithelial volt-ohm meter (Millipore, USA). Mannitol translocation and TEER values were not affected by addition of peptide or analogues compared to buffer.
The Caco-2 translocation of peptide or mannitol over Caco-2 layers is expressed as the apparent permeability ( [drawing 72] ), given by: [drawing 73] (6) where [drawing 74] is the steady-state flux of peptide (pmol/s), [drawing 75] is the surface area of the cell monolayer (1.12 [drawing 76] ), and [drawing 77] is the initial sample concentration added to the cell layer.

[1] abbreviates: apical to basolateral, 1 hour, no enhancer, 3 separate experiments each with 4 repeats.

The structures appear in SMILES notation. Side chains are listed from the residue outwards. Peptide text beside a SMILES is read from it. * marks the point of attachment. Palmitoyl = CCCCCCCCCCCCCCCC(=O)*; Lauroyl = CCCCCCCCCCCC(=O)*; Octanoyl = CCCCCCCC(=O)*; βAla = NCCC(=O)O

Regarding `CCCCCCCCCCCC(=O)NCCC(=O)NCCCC[C@H](NC(=O)[C@H](CC(N)=O)NC(=O)[C@H](CC(=O)O)NC(=O)[C@H](CC(C)C)NC(=O)[C@@H](NC(=O)[C@@H](NC(=O)[C@H](CC(N)=O)NC(=O)[C@H](CCSC)NC(=O)[C@H](CCC(=O)O)NC(=O)[C@H](CC(=O)O)NC(=O)[C@H](CO)NC(=O)[C@H](Cc1ccccc1)NC(=O)[C@H](CO)NC(=O)CNC(=O)[C@H](CCC(=O)O)NC(=O)[C@H](C)NC(=O)[C@@H](N)Cc1c[nH]cn1)[C@@H](C)O)[C@@H](C)CC)C(=O)N[C@@H](C)C(=O)N[C@@H](C)C(=O)N[C@@H](CCCNC(=N)N)C(=O)N[C@@H](CC(=O)O)C(=O)N[C@@H](Cc1ccccc1)C(=O)N[C@H](C(=O)N[C@@H](CC(N)=O)C(=O)N[C@@H](Cc1c[nH]c2ccccc12)C(=O)N[C@@H](CC(C)C)C(=O)N[C@H](C(=O)N[C@@H](CCC(N)=O)C(=O)N[C@H](C(=O)N[C@@H](CCCNC(=N)N)C(=O)N[C@H](C(=O)N[C@H](C(=O)N[C@@H](CC(=O)O)C(=O)O)[C@@H](C)O)[C@@H](C)CC)[C@@H](C)O)[C@@H](C)CC)[C@@H](C)CC` [c12] (H-HAEGSFSDEMNTILDNK([βAla-Lauroyl])AARDFINWLIQTRITD-OH), the “Caco-2 translocation with absorption enhancer, times the native peptide” value (Caco-2, apical to basolateral, in the presence of EGTA (paracellular) or SDS (transcellular), 2 separate experiments each with 4 repeats) was “approximately 1.5”. Besides, where the note is “Caco-2 monolayers 14-16 days, apical to basolateral, 100 (unit is a drawing) peptide, HBSS with 10 mM HEPES and 0.1% OVA, 1 hour, luciferase assay read-out, no enhancer, 3 separate experiments each with 4 repeats”, the “increase in Caco-2 translocation compared to native GLP-2 (factor)” value is listed as about 1.5. Moreover, the “Caco-2 translocation relative to native GLP-2 (in words)” value under setting [1] is listed as “increase the translocation relative to native GLP-2”.
On to `CCCCCCCCCCCCCCCC(=O)NCCC(=O)NCCCC[C@H](NC(=O)[C@H](CC(N)=O)NC(=O)[C@H](CC(=O)O)NC(=O)[C@H](CC(C)C)NC(=O)[C@@H](NC(=O)[C@@H](NC(=O)[C@H](CC(N)=O)NC(=O)[C@H](CCSC)NC(=O)[C@H](CCC(=O)O)NC(=O)[C@H](CC(=O)O)NC(=O)[C@H](CO)NC(=O)[C@H](Cc1ccccc1)NC(=O)[C@H](CO)NC(=O)CNC(=O)[C@H](CCC(=O)O)NC(=O)[C@H](C)NC(=O)[C@@H](N)Cc1c[nH]cn1)[C@@H](C)O)[C@@H](C)CC)C(=O)N[C@@H](C)C(=O)N[C@@H](C)C(=O)N[C@@H](CCCNC(=N)N)C(=O)N[C@@H](CC(=O)O)C(=O)N[C@@H](Cc1ccccc1)C(=O)N[C@H](C(=O)N[C@@H](CC(N)=O)C(=O)N[C@@H](Cc1c[nH]c2ccccc12)C(=O)N[C@@H](CC(C)C)C(=O)N[C@H](C(=O)N[C@@H](CCC(N)=O)C(=O)N[C@H](C(=O)N[C@@H](CCCNC(=N)N)C(=O)N[C@H](C(=O)N[C@H](C(=O)N[C@@H](CC(=O)O)C(=O)O)[C@@H](C)O)[C@@H](C)CC)[C@@H](C)O)[C@@H](C)CC)[C@@H](C)CC` [c16] (H-HAEGSFSDEMNTILDNK([βAla-Palmitoyl])AARDFINWLIQTRITD-OH), for which the “Caco-2 translocation in the presence of SDS (in words)” value (Caco-2, apical to basolateral, SDS) is on record as “remains lower than for the c12 peptide”. Also, the “increase in peptide permeability with SDS compared to peptide alone” value (Caco-2, apical to basolateral, SDS (transcellular enhancer), 2 separate experiments each with 4 repeats) was “the increase is greater”. Besides, the “Caco-2 translocation relative to native GLP-2 (in words)” value under setting [1] is recorded as “decreases it slightly”.
On to `CCCCCCCC(=O)NCCC(=O)NCCCC[C@H](NC(=O)[C@H](CC(N)=O)NC(=O)[C@H](CC(=O)O)NC(=O)[C@H](CC(C)C)NC(=O)[C@@H](NC(=O)[C@@H](NC(=O)[C@H](CC(N)=O)NC(=O)[C@H](CCSC)NC(=O)[C@H](CCC(=O)O)NC(=O)[C@H](CC(=O)O)NC(=O)[C@H](CO)NC(=O)[C@H](Cc1ccccc1)NC(=O)[C@H](CO)NC(=O)CNC(=O)[C@H](CCC(=O)O)NC(=O)[C@H](C)NC(=O)[C@@H](N)Cc1c[nH]cn1)[C@@H](C)O)[C@@H](C)CC)C(=O)N[C@@H](C)C(=O)N[C@@H](C)C(=O)N[C@@H](CCCNC(=N)N)C(=O)N[C@@H](CC(=O)O)C(=O)N[C@@H](Cc1ccccc1)C(=O)N[C@H](C(=O)N[C@@H](CC(N)=O)C(=O)N[C@@H](Cc1c[nH]c2ccccc12)C(=O)N[C@@H](CC(C)C)C(=O)N[C@H](C(=O)N[C@@H](CCC(N)=O)C(=O)N[C@H](C(=O)N[C@@H](CCCNC(=N)N)C(=O)N[C@H](C(=O)N[C@H](C(=O)N[C@@H](CC(=O)O)C(=O)O)[C@@H](C)O)[C@@H](C)CC)[C@@H](C)O)[C@@H](C)CC)[C@@H](C)CC` [c8] (H-HAEGSFSDEMNTILDNK([βAla-Octanoyl])AARDFINWLIQTRITD-OH), for which the “Caco-2 translocation relative to native GLP-2 (in words)” value under setting [1] was “increase the translocation relative to native GLP-2”.
